Experiments:
Assay in all cases: relative viability (nuclei count vs DMSO), 5 days (fraction); higher = more cells survive
[1] = compound: CCCCCCCC[C@H]1[C@@H](C(=C)C(=O)O1)C(=O)O [C-75]
Procedure, shortened: (§1)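 Lung cancer cell lines received five library-drug doses (not always all listed) spaced by √10, pinned on vehicle-anchored 1536-well plates after an overnight stay at 37 °C. Five days later, with no medium change, nuclei were Hoechst-stained, imaged at 4× and counted with MetaXpress. Viability is treated-well nuclei relative to vehicle-well nuclei, as a median across plates. Passing plates had control CV below 25% and at least one doubling.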

[2] = compound: O=C(O)c1ccc(-c2c[nH]c3ncc(-c4ccccc4)cc23)cc1C1CCCC1
Procedure, shortened: as §1

[3] = compound: NC(=O)Nc1cc(-c2cccc(F)c2)sc1C(=O)N[C@H]1CCCNC1 [AZD7762]
Procedure, shortened: as §1

[4] = compound: Oc1nc(-c2ccc(C(F)(F)F)cc2)nc2c1CSCC2 [XAV939]
Procedure, shortened: as §1

[5] = compound: CC1(C)CCC(c2ccc(Cl)cc2)=C(CN2CCN(c3ccc(C(=O)NS(=O)(=O)c4ccc(N[C@H](CCN5CCOCC5)CSc5ccccc5)c(S(=O)(=O)C(F)(F)F)c4)cc3)CC2)C1 [Navitoclax]
Procedure, shortened: as §1

| Cell Line | relative viability ([1]; 0.08 µM) | relative viability ([1]; 0.253 µM) | relative viability ([1]; 0.8 µM) | relative viability ([1]; 2.53 µM) | relative viability ([1]; 8 µM) | relative viability ([2]; 0.04 µM) | relative viability ([2]; 0.1265 µM) | relative viability ([2]; 0.4 µM) | relative viability ([2]; 1.265 µM) | relative viability ([3]; 0.01 µM) | relative viability ([3]; 0.03162 µM) | relative viability ([3]; 0.1 µM) | relative viability ([3]; 0.2 µM, anchor plate) | relative viability ([3]; 0.3162 µM) | relative viability ([3]; 1 µM) | relative viability ([4]; 0.08 µM) | relative viability ([4]; 0.253 µM) | relative viability ([4]; 0.8 µM) | relative viability ([4]; 2.53 µM) | relative viability ([5]; 0.005 µM) | relative viability ([5]; 0.01581 µM) | relative viability ([5]; 0.05 µM) | relative viability ([5]; 0.1581 µM) | relative viability ([5]; 0.5 µM) | relative viability ([5]; 0.5 µM, anchor plate) |
| --- | --- | --- | --- | --- | --- | --- | --- | --- | --- | --- | --- | --- | --- | --- | --- | --- | --- | --- | --- | --- | --- | --- | --- | --- | --- |
| NCI-H1666 | 1.05 | 1.21 | 0.946 | 0.721 | 0.96 | 0.958 | 1.01 | 0.949 | 0.68 | 1.09 | 1.04 | 1.1 | 0.895 | 1.01 | 0.98 | 1.03 | 0.98 | 0.977 | 0.929 | 1.02 | 1.02 | 0.853 | 1.02 | 1.01 | 0.994 |
| NCI-H1915 | 0.987 | 1.05 | 0.959 | 0.862 | 0.823 | 1.02 | 0.974 | 0.955 | 0.857 | 1.01 | 1.01 | 1.05 | 0.72 | 0.99 | 0.89 | 1.03 | 0.973 | 1.01 | 0.96 | 0.968 | 0.963 | 1.05 | 0.923 | 0.886 | 0.789 |
| NCI-H838 | 0.989 | 0.82 | 0.941 | 0.867 | 0.895 | 0.972 | 1.16 | 0.994 | 0.926 | 1.04 | 0.982 | 1.01 | 0.944 | 0.942 | 0.599 | 0.965 | 0.892 | 0.805 | 0.624 | 0.964 | 1.02 | 1.08 | 1 | 0.97 | 1.21 |
| NCI-H1623 | 1.02 | 1.22 | 1.02 | 0.931 | 0.978 | 0.963 | 0.995 | 0.932 | 0.762 | 0.869 | 0.938 | 0.936 | – | 1.1 | 0.895 | 0.922 | 0.838 | 0.848 | 0.814 | 0.936 | 0.957 | 0.812 | 0.984 | 1.03 | – |
| NCI-H1648 | 0.758 | 1.27 | 0.737 | – | 0.899 | 1 | 1.15 | 0.75 | 0.768 | 1.29 | 1.08 | 0.87 | 0.676 | 0.932 | 0.99 | 0.794 | 0.764 | 0.887 | 0.737 | 0.914 | 1.07 | – | 0.78 | 1.09 | – |
| SW 900 | 0.786 | 1.11 | 0.719 | 0.695 | 0.867 | 0.846 | 0.915 | 0.777 | 0.741 | 0.876 | 0.957 | 1.17 | 0.68 | 0.891 | 0.475 | 0.954 | 0.832 | 0.928 | 0.677 | 0.841 | 1.06 | 0.667 | 0.742 | 0.925 | – |
| NCI-H1792 | 0.904 | 0.956 | 0.845 | 0.76 | 0.863 | – | 1.09 | 0.856 | 0.921 | 0.912 | 1.02 | 1.02 | 0.71 | 1.08 | 1.01 | 0.955 | 0.874 | 0.871 | 0.74 | 0.956 | 0.936 | 0.778 | 0.693 | 1.06 | 0.664 |
| NCI-H522 | 0.97 | 0.898 | 1.02 | 0.721 | 0.873 | 0.851 | 1.13 | 0.83 | 0.945 | 1.02 | 1.15 | 0.955 | 0.841 | 0.939 | 0.839 | 0.962 | 0.901 | 0.983 | 0.881 | 0.841 | 1.12 | 1.03 | 0.912 | 0.978 | – |
| NCI-H2170 | 0.984 | 0.94 | 0.943 | 0.913 | 0.954 | 1.01 | 1 | 0.937 | 0.904 | 1 | 1.01 | 1.02 | 0.858 | 0.989 | 0.972 | 0.937 | 0.886 | 0.939 | 0.785 | 1.02 | 1.06 | 1.06 | 0.935 | 0.748 | 0.636 |
| HCC-366 | 0.974 | 1.11 | 0.975 | 0.763 | 0.982 | 1 | 1.02 | 0.998 | 0.971 | 0.981 | 1.03 | 0.998 | 0.289 | 0.886 | 0.393 | 0.971 | 0.9 | 1 | 1.01 | 1.04 | 1.05 | 0.728 | 0.968 | 1.07 | 1.03 |
| ChaGo-K-1 | 0.93 | 0.98 | 0.931 | 0.799 | 0.966 | 1.05 | 1.01 | 0.896 | 1.02 | 1.01 | 0.969 | 1.06 | 0.873 | 0.905 | 0.841 | 0.978 | 0.894 | 1.03 | 0.973 | 1.03 | 1.01 | 0.727 | 0.961 | 1.04 | 1.09 |
| NCI-H2347 | 0.991 | 1.09 | 0.973 | 0.862 | 1.02 | 1.1 | 1.08 | 1.02 | 0.906 | 1.16 | 1.04 | 1.24 | 0.812 | 1.21 | 0.922 | 1.19 | 0.978 | 0.964 | 0.84 | 1.02 | 1.12 | 0.906 | 1.02 | 1.03 | 0.757 |
| NCI-H1437 | 0.941 | 1.05 | 0.919 | 0.984 | 0.987 | 0.962 | 0.988 | 0.976 | 0.586 | 1.05 | 0.963 | 1.04 | 1.11 | 1.01 | 0.867 | 1.03 | 0.901 | 0.999 | 0.93 | 0.969 | 1.05 | 0.932 | 0.958 | 0.974 | 1.06 |
| NCI-H2087 | 1.06 | 0.963 | 0.941 | 0.915 | 0.924 | 1.12 | 1.14 | 1.04 | 0.794 | 1.02 | 1.08 | 1.26 | 1.24 | 1.23 | 1.24 | 1.32 | 0.781 | 1.07 | 0.849 | 1.01 | 1.16 | – | 1.01 | 1.09 | 0.952 |
| BEN | 1.11 | 1.02 | 0.898 | 0.756 | 0.817 | 0.931 | 1.08 | 1 | 0.935 | 1.05 | 0.963 | 0.958 | 0.743 | 0.907 | 0.873 | 1.01 | 0.869 | 0.897 | 0.835 | 0.973 | 1.12 | 0.839 | 0.942 | – | – |
| NCI-H2126 | 0.949 | 1.14 | 0.957 | 0.919 | 0.943 | 1.1 | 1 | 0.992 | 0.923 | 0.972 | 1.07 | 1.05 | 1.01 | 1.02 | 1.09 | 1.01 | 0.826 | 0.822 | 0.807 | 1.04 | 1.07 | 0.901 | 0.927 | 0.976 | 0.852 |
| NCI-H647 | 0.919 | 0.996 | 0.74 | 0.915 | 0.78 | 0.975 | 1.03 | 0.908 | 0.709 | 1.04 | 1.14 | 0.923 | 0.505 | 0.616 | 0.194 | 1.02 | 0.845 | 0.918 | 0.866 | 0.859 | 1.04 | 1.13 | 0.871 | 0.881 | 1.12 |
| EPLC-272H | 1.06 | 1.01 | 0.78 | 0.744 | 0.575 | 0.976 | 1.1 | 0.992 | 0.697 | 0.892 | 1.06 | 0.935 | 0.278 | 0.742 | 0.267 | 0.95 | 0.97 | 0.92 | 0.957 | 0.993 | – | 0.888 | 0.922 | 0.921 | 1.13 |
| NCI-H1975 | 0.999 | 0.827 | 0.85 | 0.884 | 0.931 | 0.952 | 1.09 | 0.965 | 0.975 | 0.957 | 0.927 | 0.938 | 0.761 | 0.791 | 0.575 | 0.87 | 0.705 | 0.78 | 0.742 | 0.927 | 1.06 | 1.03 | 0.824 | 0.99 | 1.12 |
| HCC-78 | 0.948 | 0.882 | 0.817 | 0.761 | 0.95 | 0.929 | 1.24 | 1.1 | 0.864 | 1.02 | 1.14 | 0.978 | 0.706 | 0.95 | 0.552 | 0.923 | 0.8 | 0.919 | 0.667 | 1.03 | 1.11 | 0.729 | 0.958 | 1.02 | 0.737 |
| NCI-H358 | 0.849 | 0.896 | 0.874 | 0.854 | 0.693 | 0.893 | 1.17 | 0.88 | 0.611 | 1.02 | 1.13 | 0.878 | 0.536 | 0.758 | 0.444 | 0.795 | 0.77 | 0.857 | 0.777 | 1.01 | 1.2 | 0.961 | 0.985 | 0.977 | – |
| LCLC-97TM1 | 0.963 | 1.09 | 0.95 | 0.813 | 0.622 | 1.04 | 0.957 | 0.98 | 0.901 | 1.05 | 0.98 | 1.11 | 0.281 | 0.926 | 0.588 | 0.975 | 0.764 | 0.879 | 0.944 | 0.966 | 1.06 | 0.915 | 0.94 | 1.02 | 0.502 |
